Experimental data reported in article PMC8368996, “Interactions between AMOT PPxY motifs and NEDD4L WW domains function in HIV-1 release” (The Journal of Biological Chemistry, 2021).
Peptide text beside a SMILES is read from it. * marks the point of attachment. X1 = O=C1OC2(c3cc(F)c(O)cc3Oc3cc(O)c(F)cc32)c2ccc(N3C(=O)CC(*)C3=O)cc21

Biological target: T1, NEDD4L WW3 (Homo sapiens, UniProt Q96PU5)
T1 construct: -WW3(497 -530); GST (N, cleaved yes); made in house; host or cells: E. coli Rosetta-pLysS
T1 sequence (Q96PU5 497-530 limits assumed): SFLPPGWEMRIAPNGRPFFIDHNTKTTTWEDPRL
Test: Fluorescence polarization (FP) anisotropy binding of labeled AMOT PPxY peptides to recombinant NEDD4L WW3 domain
Conditions: for fold reduction of NEDD4L WW3 binding affinity relative to the wt peptide: FP Kd ratio mutant / wt
Description: Each dilution series was performed at least in triplicate. […] The mean Kd values are reported as mean ± SEM.

| SMILES | fold reduction of NEDD4L WW3 binding affinity relative to the wt peptide | fold tighter binding than any other pairwise AMOT PPxY-NEDD4L WW interaction (PPxY1-WW3 compared with the 11 other pairs of Fig. 3E) |
| --- | --- | --- |
| CSCC[C@H](NC(=O)CNC(=O)[C@H](CCCCN)NC(=O)[C@H](Cc1ccccc1)NC(=O)[C@@H]1CCCN1C(=O)[C@H](Cc1ccc(O)cc1)NC(=O)[C@H](CCC(=O)O)NC(=O)[C@@H]1CCCN1C(=O)[C@H](CC(C)C)NC(=O)[C@@H]1CCCN1C(=O)CNC(=O)[C@H](CCCNC(=N)N)NC(=O)[C@H](Cc1c[nH]cn1)NC(=O)[C@H](CCC(=O)O)NC(=O)[C@H](CCSC)NC(=O)[C@@H](N)CSC1CC(=O)N(c2ccc3c(c2)C(=O)OC32c3cc(F)c(O)cc3Oc3cc(O)c(F)cc32)C1=O)C(N)=O (stereo partly shown) [(P/L)PPxY2] (H-C(X1)MEHRGPLPEYPFKGM-NH2; N-terminus and C-terminus assumed) | 2.8 fold |  |
| CSCC[C@H](NC(=O)[C@@H](N)CSC1CC(=O)N(c2ccc3c(c2)C(=O)OC32c3cc(F)c(O)cc3Oc3cc(O)c(F)cc32)C1=O)C(=O)N[C@@H](CCC(N)=O)C(=O)N[C@@H](CC(N)=O)C(=O)N[C@@H](CC(N)=O)C(=O)N[C@@H](CCC(=O)O)C(=O)N[C@@H](CCC(=O)O)C(=O)N[C@@H](CC(C)C)C(=O)N1CCC[C@H]1C(=O)N[C@H](C(=O)N[C@@H](Cc1ccc(O)cc1)C(=O)N[C@@H](CCC(=O)O)C(=O)N[C@@H](CCC(=O)O)C(=O)N[C@@H](CCCCN)C(=O)N[C@@H](CCCCN)C(=O)N[C@H](C(N)=O)C(C)C)[C@@H](C)O (stereo partly shown) [A112K] (H-C(X1)MQNNEELPTYEEKKV-NH2; N-terminus and C-terminus assumed) | 8 fold |  |
| CSCC[C@H](NC(=O)[C@@H](N)CSC1CC(=O)N(c2ccc3c(c2)C(=O)OC32c3cc(F)c(O)cc3Oc3cc(O)c(F)cc32)C1=O)C(=O)N[C@@H](CCC(N)=O)C(=O)N[C@@H](CC(N)=O)C(=O)N[C@@H](CC(N)=O)C(=O)N[C@@H](CCCCN)C(=O)N[C@@H](CCCCN)C(=O)N[C@@H](CC(C)C)C(=O)N1CCC[C@H]1C(=O)N[C@H](C(=O)N[C@@H](Cc1ccc(O)cc1)C(=O)N[C@@H](CCC(=O)O)C(=O)N[C@@H](CCC(=O)O)C(=O)N[C@@H](C)C(=O)N[C@@H](CCCCN)C(=O)N[C@H](C(N)=O)C(C)C)[C@@H](C)O (stereo partly shown) [E104K/E105K] (H-C(X1)MQNNKKLPTYEEAKV-NH2; N-terminus and C-terminus assumed) | 6 fold |  |
| CSCC[C@H](NC(=O)[C@@H](N)CSC1CC(=O)N(c2ccc3c(c2)C(=O)OC32c3cc(F)c(O)cc3Oc3cc(O)c(F)cc32)C1=O)C(=O)N[C@@H](CCC(N)=O)C(=O)N[C@@H](CC(N)=O)C(=O)N[C@@H](CC(N)=O)C(=O)N[C@@H](CCC(=O)O)C(=O)N[C@@H](CCC(=O)O)C(=O)N[C@@H](CC(C)C)C(=O)N1CCC[C@H]1C(=O)N[C@H](C(=O)N[C@@H](Cc1ccc(O)cc1)C(=O)N[C@@H](CCC(=O)O)C(=O)N[C@@H](CCC(=O)O)C(=O)N[C@@H](C)C(=O)N[C@@H](CCCCN)C(=O)N[C@H](C(N)=O)C(C)C)[C@@H](C)O (stereo partly shown) [PPxY1] (H-C(X1)MQNNEELPTYEEAKV-NH2; N-terminus and C-terminus assumed) |  | more than 5 fold |
